Results published in the NIST ThermoML archive (doi:10.1016/j.fluid.2013.09.036).
Numbers after ± are expanded uncertainties.

Experiments:
[1] = 101.33 kPa, Liquid; for mass density: Vibrating tube method
[2] = xn = mol fraction of the nth substance listed; conditions: Liquid, Other PVT measurement

CCC[N+]1(C)CCCC1.O=S(=O)([N-]S(=O)(=O)C(F)(F)F)C(F)(F)F
[1]
Conditions	electrical conductivity [S/m]	mass density [kg/m3]	viscosity [mPa·s]
278.15 K	0.158 ± 0.0063	1446.23 ± 1.6	169.4 ± 6.8
283.15 K	0.206 ± 0.0082	1441.6 ± 1.6	127.2 ± 5.1
288.15 K	0.262 ± 0.011	1437 ± 1.5	97.84 ± 4
293.15 K	0.327 ± 0.013	1432.46 ± 1.5	76.89 ± 3.1
298.15 K	0.4 ± 0.016	1427.91 ± 1.5	61.52 ± 2.5
303.15 K	0.483 ± 0.019	1423.37 ± 1.5	49.99 ± 2
313.15 K	0.675 ± 0.027	1414.36 ± 1.5	34.45 ± 1.4
323.15 K	0.902 ± 0.036	1405.44 ± 1.5	24.91 ± 1
333.15 K	1.16 ± 0.047	1396.6 ± 1.5	18.71 ± 0.75
343.15 K	1.46 ± 0.058	1387.82 ± 1.5	14.51 ± 0.58
353.15 K	1.78 ± 0.071	1379.12 ± 1.5	11.55 ± 0.47
363.15 K	–	1370.48 ± 1.5	9.398 ± 0.38

CCC[N+]1(C)CCCC1.O=S(=O)([N-]S(=O)(=O)C(F)(F)F)C(F)(F)F + O=C=O
[2]
Conditions	molar volume [m3/mol]
298.15 K, 525.5 kPa, x2 = 0.134	0.0002522 ± 3e-06
298.15 K, 1123.1 kPa, x2 = 0.255	0.0002222 ± 2.7e-06
298.15 K, 1476.5 kPa, x2 = 0.316	0.0002071 ± 2.5e-06
298.15 K, 1913.1 kPa, x2 = 0.376	0.0001924 ± 2.3e-06
298.15 K, 2237.6 kPa, x2 = 0.418	0.000182 ± 2.2e-06
298.15 K, 2800.7 kPa, x2 = 0.478	0.0001674 ± 2e-06
298.15 K, 3281.6 kPa, x2 = 0.523	0.0001565 ± 1.9e-06
298.15 K, 3998.7 kPa, x2 = 0.578	0.0001431 ± 1.7e-06
298.15 K, 4567.3 kPa, x2 = 0.616	0.0001339 ± 1.6e-06
313.15 K, 567.7 kPa, x2 = 0.113	0.0002606 ± 3.1e-06
313.15 K, 1217.5 kPa, x2 = 0.218	0.0002344 ± 2.8e-06
313.15 K, 1606.5 kPa, x2 = 0.273	0.0002203 ± 2.6e-06
313.15 K, 2083.3 kPa, x2 = 0.327	0.000207 ± 2.5e-06
313.15 K, 2445 kPa, x2 = 0.369	0.0001966 ± 2.4e-06
313.15 K, 3072.7 kPa, x2 = 0.425	0.0001827 ± 2.2e-06
313.15 K, 3613.6 kPa, x2 = 0.468	0.0001718 ± 2.1e-06
313.15 K, 4415.1 kPa, x2 = 0.519	0.0001596 ± 1.9e-06
313.15 K, 5100.5 kPa, x2 = 0.561	0.000149 ± 1.8e-06
333.15 K, 618.4 kPa, x2 = 0.093	0.0002678 ± 3.2e-06
333.15 K, 1333.3 kPa, x2 = 0.18	0.0002455 ± 2.9e-06
333.15 K, 1767.4 kPa, x2 = 0.229	0.0002327 ± 2.8e-06
333.15 K, 2294.9 kPa, x2 = 0.275	0.0002214 ± 2.7e-06
333.15 K, 2702.9 kPa, x2 = 0.316	0.0002107 ± 2.5e-06
333.15 K, 3411.9 kPa, x2 = 0.368	0.0001978 ± 2.4e-06
333.15 K, 4029.9 kPa, x2 = 0.409	0.0001874 ± 2.3e-06
333.15 K, 4942.5 kPa, x2 = 0.455	0.0001767 ± 2.1e-06
333.15 K, 5777.2 kPa, x2 = 0.501	0.000165 ± 2e-06
